# Measurements published in ChEMBL document CHEMBL3763027, “Identification and characterization of potent, selective and metabolically stable IKKβ inhibitor” (Bioorg Med Chem Lett, 2016).
# Tests used:
# [1] = biological target: Protein kinase C alpha type (Homo sapiens) (UniProt P17252); experiment: Inhibition of PKCalpha (unknown origin) at 10 uM
# Mus musculus [2] = experiment: Toxicity in female ICR mouse assessed as average body weight at 2000 mg/kg, po administered on day 1 measured 3 hrs post dose (reference value: 18.9 +/- 0.9 g); type: organism-based; details: in vivo
# [3] = biological target: Inhibitor of nuclear factor kappa-B kinase subunit epsilon (Homo sapiens) (UniProt Q14164); experiment: Inhibition of IKKepsilon (unknown origin) at 10 uM
# Chain of Inhibitor of nuclear factor kappa-B kinase subunit epsilon (Homo sapiens) (Q14164 whole entry): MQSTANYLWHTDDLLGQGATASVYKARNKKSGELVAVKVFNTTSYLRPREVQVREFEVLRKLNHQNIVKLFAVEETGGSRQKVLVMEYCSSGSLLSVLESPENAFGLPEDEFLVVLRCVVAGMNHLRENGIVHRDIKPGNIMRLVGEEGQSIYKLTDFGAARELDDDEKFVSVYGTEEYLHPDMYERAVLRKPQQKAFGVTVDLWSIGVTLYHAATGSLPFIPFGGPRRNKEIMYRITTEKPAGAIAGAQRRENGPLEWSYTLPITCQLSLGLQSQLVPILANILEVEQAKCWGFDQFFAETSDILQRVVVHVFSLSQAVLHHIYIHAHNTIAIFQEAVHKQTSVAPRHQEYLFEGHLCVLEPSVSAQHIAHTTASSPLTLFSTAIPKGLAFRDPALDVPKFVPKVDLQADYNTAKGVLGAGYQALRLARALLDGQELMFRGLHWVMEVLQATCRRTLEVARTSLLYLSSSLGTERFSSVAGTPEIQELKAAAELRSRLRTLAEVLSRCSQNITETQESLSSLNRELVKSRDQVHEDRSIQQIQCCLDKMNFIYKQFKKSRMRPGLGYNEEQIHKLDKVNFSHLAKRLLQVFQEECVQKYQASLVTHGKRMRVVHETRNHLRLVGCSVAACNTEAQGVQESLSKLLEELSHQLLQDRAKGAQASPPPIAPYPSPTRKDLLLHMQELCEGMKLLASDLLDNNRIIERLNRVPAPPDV
# Mus musculus [4] = experiment: Toxicity in ICR mouse assessed as change in organ anatomy at 2000 mg/kg, po administered for 14 days measured on day 15; type: organism-based; details: in vivo, 336 h
# [5] = biological target: Aurora kinase A (Homo sapiens) (UniProt O14965); experiment: Inhibition of Aurora A (unknown origin) at 10 uM
# [6] = biological target: Ribosomal protein S6 kinase beta-1 (Homo sapiens) (UniProt P23443); experiment: Inhibition of P70S6K (unknown origin) at 10 uM
# Chain of Ribosomal protein S6 kinase beta-1 (Homo sapiens) (P23443 whole entry, looked up): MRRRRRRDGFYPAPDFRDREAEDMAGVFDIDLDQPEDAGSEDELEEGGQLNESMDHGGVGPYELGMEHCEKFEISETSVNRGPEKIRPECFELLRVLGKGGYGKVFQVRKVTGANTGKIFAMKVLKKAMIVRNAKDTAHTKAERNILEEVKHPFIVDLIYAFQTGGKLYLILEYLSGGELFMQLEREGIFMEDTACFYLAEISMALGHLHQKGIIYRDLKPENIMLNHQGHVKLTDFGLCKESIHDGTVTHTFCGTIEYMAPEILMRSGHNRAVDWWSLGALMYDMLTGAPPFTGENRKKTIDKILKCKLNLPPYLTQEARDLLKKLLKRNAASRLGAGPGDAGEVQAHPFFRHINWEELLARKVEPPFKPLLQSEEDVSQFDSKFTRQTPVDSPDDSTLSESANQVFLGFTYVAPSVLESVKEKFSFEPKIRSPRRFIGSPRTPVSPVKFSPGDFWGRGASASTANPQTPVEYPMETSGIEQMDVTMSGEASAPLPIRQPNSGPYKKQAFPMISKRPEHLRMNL
# [7] = Oral bioavailability in Sprague-Dawley rat at 2 mg/kg after 0.25 to 24 hrs; type: ADME, organism-based; details: in vivo
# Rattus norvegicus [8] = experiment: AUC (0 to infinity) in Sprague-Dawley rat at 2 mg/kg, po after 0.25 to 24 hrs; type: ADME, organism-based; parameters: dose 2 mg/kg, time infinity, route oral; details: in vivo
# [9] = biological target: Mitogen-activated protein kinase 9 (Homo sapiens) (UniProt P45984); experiment: Inhibition of JNK2 (unknown origin) at 10 uM
# [10] = biological target: Mitogen-activated protein kinase 10 (Homo sapiens) (UniProt P53779); experiment: Inhibition of JNK3 (unknown origin) at 10 uM
# Chain of Mitogen-activated protein kinase 10 (Homo sapiens) (P53779 whole entry): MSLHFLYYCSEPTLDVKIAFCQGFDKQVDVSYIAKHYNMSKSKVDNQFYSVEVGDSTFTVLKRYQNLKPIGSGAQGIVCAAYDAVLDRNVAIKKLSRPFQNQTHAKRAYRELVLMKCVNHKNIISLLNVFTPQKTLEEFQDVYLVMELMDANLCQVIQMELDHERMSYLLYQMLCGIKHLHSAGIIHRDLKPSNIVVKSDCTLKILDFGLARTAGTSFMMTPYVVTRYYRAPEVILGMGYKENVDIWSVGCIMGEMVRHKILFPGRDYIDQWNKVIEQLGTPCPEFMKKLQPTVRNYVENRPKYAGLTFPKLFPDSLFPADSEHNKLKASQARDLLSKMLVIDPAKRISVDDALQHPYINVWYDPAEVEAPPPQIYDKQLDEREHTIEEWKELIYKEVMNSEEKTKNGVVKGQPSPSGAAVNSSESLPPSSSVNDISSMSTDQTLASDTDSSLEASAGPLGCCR
# [11] = biological target: Mitogen-activated protein kinase 1 (Homo sapiens) (UniProt P28482); experiment: Inhibition of ERK2/MAPK2 (unknown origin) at 10 uM
# [12] = biological target: Calcium/calmodulin-dependent protein kinase type 1 (Homo sapiens) (UniProt Q14012); experiment: Inhibition of CAMK1alpha (unknown origin) at 10 uM
# [13] = biological target: Ribosomal protein S6 kinase alpha-4 (Homo sapiens) (UniProt O75676); experiment: Inhibition of MSK2 (unknown origin) at 10 uM
# [14] = biological target: Serine/threonine-protein kinase Chk2 (Homo sapiens) (UniProt O96017); experiment: Inhibition of CHK2 (unknown origin) at 10 uM
# Chain of Serine/threonine-protein kinase Chk2 (Homo sapiens) (O96017 whole entry): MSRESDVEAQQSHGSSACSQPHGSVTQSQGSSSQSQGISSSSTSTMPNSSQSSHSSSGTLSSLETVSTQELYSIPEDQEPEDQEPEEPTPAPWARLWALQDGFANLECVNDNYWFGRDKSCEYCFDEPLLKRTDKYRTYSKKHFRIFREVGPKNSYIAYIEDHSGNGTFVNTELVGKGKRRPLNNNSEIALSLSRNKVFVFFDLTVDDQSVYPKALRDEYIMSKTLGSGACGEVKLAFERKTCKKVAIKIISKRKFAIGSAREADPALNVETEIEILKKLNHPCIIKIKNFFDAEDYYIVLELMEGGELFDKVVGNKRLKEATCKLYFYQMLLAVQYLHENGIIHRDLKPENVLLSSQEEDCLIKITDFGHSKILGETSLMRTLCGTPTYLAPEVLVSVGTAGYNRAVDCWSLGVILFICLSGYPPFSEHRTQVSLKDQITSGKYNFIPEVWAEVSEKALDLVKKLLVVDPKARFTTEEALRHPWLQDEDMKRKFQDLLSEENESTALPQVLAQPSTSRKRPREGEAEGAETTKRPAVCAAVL
# [15] = biological target: Casein kinase II subunit alpha (Homo sapiens) (UniProt P68400); experiment: Inhibition of CK2alpha (unknown origin) at 10 uM
# [16] = biological target: Rho-associated protein kinase 1 (Homo sapiens) (UniProt Q13464); experiment: Inhibition of ROCK1 (unknown origin) at 10 uM
# [17] = biological target: Mitogen-activated protein kinase 8 (Homo sapiens) (UniProt P45983); experiment: Inhibition of JNK1 (unknown origin) at 10 uM
# Chain of Mitogen-activated protein kinase 8 (Homo sapiens) (P45983 whole entry): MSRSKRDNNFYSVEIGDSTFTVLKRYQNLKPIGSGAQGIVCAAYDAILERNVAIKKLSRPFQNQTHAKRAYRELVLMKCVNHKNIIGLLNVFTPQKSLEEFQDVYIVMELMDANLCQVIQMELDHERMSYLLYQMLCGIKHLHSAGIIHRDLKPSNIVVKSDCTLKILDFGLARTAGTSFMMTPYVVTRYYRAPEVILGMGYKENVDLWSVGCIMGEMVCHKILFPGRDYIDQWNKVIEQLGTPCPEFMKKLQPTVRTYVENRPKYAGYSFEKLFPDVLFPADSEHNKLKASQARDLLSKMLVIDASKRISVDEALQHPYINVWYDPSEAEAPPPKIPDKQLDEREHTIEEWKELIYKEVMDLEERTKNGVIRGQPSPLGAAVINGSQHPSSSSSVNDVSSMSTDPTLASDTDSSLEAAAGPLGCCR
# [18] = biological target: Serine/threonine-protein kinase B-raf (Homo sapiens) (UniProt P15056); experiment: Inhibition of BRAF (unknown origin) at 10 uM
# [19] = biological target: 3-phosphoinositide-dependent protein kinase 1 (Homo sapiens) (UniProt O15530); experiment: Inhibition of PDK1 (unknown origin) at 10 uM
# [20] = biological target: Ephrin type-A receptor 2 (Homo sapiens) (UniProt P29317); experiment: Inhibition of EPHA2 (unknown origin) at 10 uM
# Mus musculus [21] = experiment: Toxicity in male ICR mouse assessed as average body weight at 2000 mg/kg, po administered for 7 days measured 3 hrs post last dose (reference value: 20.3 +/- 0.4 g); type: organism-based; details: in vivo
# [22] = biological target: Serine/threonine-protein kinase pim-2 (Homo sapiens) (UniProt Q9P1W9); experiment: Inhibition of PIM2 (unknown origin) at 10 uM
# Mus musculus [23] = experiment: Toxicity in male ICR mouse assessed as average body weight at 2000 mg/kg, po administered for 10 days measured 3 hrs post last dose (reference value: 20.3 +/- 0.4 g); type: organism-based; details: in vivo
# [24] = biological target: Tyrosine-protein kinase Lck (Homo sapiens) (UniProt P06239); experiment: Inhibition of LCK (unknown origin) at 10 uM
# Chain of Tyrosine-protein kinase Lck (Homo sapiens) (P06239 2-509 limits assumed): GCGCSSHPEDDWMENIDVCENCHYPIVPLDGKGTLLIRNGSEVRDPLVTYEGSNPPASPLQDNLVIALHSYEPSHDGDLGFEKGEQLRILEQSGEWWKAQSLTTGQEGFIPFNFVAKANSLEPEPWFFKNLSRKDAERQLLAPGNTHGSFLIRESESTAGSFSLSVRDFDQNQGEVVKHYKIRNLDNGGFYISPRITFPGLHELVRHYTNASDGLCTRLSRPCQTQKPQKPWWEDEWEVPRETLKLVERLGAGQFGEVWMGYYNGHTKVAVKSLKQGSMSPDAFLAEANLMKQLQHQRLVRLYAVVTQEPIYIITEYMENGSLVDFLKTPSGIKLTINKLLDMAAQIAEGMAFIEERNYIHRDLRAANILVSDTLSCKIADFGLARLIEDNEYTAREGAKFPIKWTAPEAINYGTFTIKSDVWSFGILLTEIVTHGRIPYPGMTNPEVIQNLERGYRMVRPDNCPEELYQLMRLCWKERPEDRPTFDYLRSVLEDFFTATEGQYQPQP
# [25] = biological target: Angiopoietin-1 receptor (Homo sapiens) (UniProt Q02763); experiment: Inhibition of TIE2 (unknown origin) at 10 uM
# [26] = biological target: MAP kinase-interacting serine/threonine-protein kinase 2 (Homo sapiens) (UniProt Q9HBH9); experiment: Inhibition of MNK2 (unknown origin) at 10 uM
# [27] = biological target: MAP kinase-activated protein kinase 5 (Homo sapiens) (UniProt Q8IW41); experiment: Inhibition of MAPKAPK5 (unknown origin) at 10 uM
# Chain of MAP kinase-activated protein kinase 5 (Homo sapiens) (Q8IW41 whole entry): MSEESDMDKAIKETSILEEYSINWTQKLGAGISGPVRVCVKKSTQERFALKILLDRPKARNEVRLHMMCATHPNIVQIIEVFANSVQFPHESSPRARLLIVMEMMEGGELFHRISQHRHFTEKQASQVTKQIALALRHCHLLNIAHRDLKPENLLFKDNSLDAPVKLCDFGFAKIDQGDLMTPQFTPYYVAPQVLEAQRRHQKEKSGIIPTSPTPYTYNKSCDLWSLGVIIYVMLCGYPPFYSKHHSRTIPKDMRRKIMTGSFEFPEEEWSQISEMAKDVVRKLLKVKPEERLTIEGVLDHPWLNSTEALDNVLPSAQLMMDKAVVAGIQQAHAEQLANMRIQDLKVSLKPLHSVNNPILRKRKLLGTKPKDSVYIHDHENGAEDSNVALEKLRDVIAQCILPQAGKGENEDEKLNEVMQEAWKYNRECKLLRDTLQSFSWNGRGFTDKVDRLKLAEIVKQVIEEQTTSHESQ
# [28] = biological target: Tyrosine-protein kinase Lyn (Homo sapiens) (UniProt P07948); experiment: Inhibition of LYN (unknown origin) at 10 uM
# Chain of Tyrosine-protein kinase Lyn (Homo sapiens) (P07948 2-512 limits assumed): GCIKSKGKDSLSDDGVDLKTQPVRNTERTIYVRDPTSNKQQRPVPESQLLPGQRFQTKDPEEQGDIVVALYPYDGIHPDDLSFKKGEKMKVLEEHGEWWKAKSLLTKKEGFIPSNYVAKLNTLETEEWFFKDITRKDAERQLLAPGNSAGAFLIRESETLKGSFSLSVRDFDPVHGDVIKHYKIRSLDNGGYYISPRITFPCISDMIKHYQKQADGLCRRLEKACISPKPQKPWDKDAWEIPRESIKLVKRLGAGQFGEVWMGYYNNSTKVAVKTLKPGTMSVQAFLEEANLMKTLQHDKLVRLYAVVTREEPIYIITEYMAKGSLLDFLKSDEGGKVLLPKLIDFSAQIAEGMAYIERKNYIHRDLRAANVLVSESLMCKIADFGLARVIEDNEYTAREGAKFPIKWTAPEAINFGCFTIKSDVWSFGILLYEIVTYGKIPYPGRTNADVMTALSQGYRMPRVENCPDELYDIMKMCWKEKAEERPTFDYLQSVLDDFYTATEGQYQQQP
# Mus musculus [29] = experiment: Toxicity in male ICR mouse assessed as average body weight at 2000 mg/kg, po administered for 3 days measured 3 hrs post last dose (reference value: 20.3 +/- 0.4 g); type: organism-based; details: in vivo
# [30] = biological target: Ribosomal protein S6 kinase alpha-5 (Homo sapiens) (UniProt O75582); experiment: Inhibition of MSK1 (unknown origin) at 10 uM
# Rattus norvegicus [31] = experiment: Volume of distribution in Sprague-Dawley rat at 2 mg/kg, po after 0.25 to 24 hrs; type: ADME, organism-based; details: in vivo
# Mus musculus [32] = experiment: Toxicity in male ICR mouse assessed as average body weight at 2000 mg/kg, po administered for 14 days measured 3 hrs post last dose (reference value: 20.3 +/- 0.4 g); type: organism-based; details: in vivo
# [33] = biological target: Casein kinase I isoform delta (Homo sapiens) (UniProt P48730); experiment: Inhibition of CK1delta (unknown origin) at 10 uM
# [34] = biological target: Serine/threonine-protein kinase TBK1 (Homo sapiens) (UniProt Q9UHD2); experiment: Inhibition of TBK1 (unknown origin) at 10 uM
# Chain of Serine/threonine-protein kinase TBK1 (Homo sapiens) (Q9UHD2 whole entry): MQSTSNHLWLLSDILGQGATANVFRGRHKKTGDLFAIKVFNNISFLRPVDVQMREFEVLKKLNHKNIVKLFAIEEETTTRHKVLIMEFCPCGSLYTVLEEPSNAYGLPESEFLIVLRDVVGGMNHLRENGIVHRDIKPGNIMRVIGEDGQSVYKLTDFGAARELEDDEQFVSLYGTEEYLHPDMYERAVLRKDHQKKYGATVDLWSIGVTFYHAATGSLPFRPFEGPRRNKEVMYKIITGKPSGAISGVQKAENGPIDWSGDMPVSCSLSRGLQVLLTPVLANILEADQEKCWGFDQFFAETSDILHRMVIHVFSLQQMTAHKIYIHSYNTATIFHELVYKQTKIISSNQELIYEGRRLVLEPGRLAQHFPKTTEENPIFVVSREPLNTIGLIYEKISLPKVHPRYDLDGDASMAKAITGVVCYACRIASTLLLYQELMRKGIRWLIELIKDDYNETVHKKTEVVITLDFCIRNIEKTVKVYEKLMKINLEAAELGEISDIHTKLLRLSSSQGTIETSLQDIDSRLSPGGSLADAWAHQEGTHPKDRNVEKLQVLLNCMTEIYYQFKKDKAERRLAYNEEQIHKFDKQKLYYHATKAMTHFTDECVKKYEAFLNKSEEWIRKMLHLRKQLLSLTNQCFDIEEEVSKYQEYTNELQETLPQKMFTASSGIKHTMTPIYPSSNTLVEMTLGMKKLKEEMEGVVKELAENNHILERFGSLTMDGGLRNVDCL
structure (smiles),measurement,setting,value
CN1CCN(CCCOc2ccc(N3C(=O)/C(=C/c4ccc(Oc5ccc(F)cc5)cc4)SC3=S)cc2)CC1,inhibition,[1],18.4%
same,Activity,Mus musculus [2],19.7 g
same,inhibition,[3],0%
same,Activity,Mus musculus [4],Non-toxic
same,inhibition,[5],0%
same,inhibition,[6],24.9%
same,bioavailability,[7],23%
same,AUC,Rattus norvegicus [8],79.4 ng·h/mL
same,inhibition,[9],0%
same,inhibition,[10],0%
same,inhibition,[11],6.8%
same,inhibition,[12],58.6%
same,inhibition,[13],0%
same,inhibition,[14],47%
same,inhibition,[15],0%
same,inhibition,[16],61.1%
same,inhibition,[17],2%
same,inhibition,[18],0%
same,inhibition,[19],0%
same,inhibition,[20],29%
same,Activity,Mus musculus [21],26.2 g
same,inhibition,[22],0%
same,Activity,Mus musculus [23],27.4 g
same,inhibition,[24],0%
same,inhibition,[25],57.5%
same,inhibition,[26],33.1%
same,inhibition,[27],5.2%
same,inhibition,[28],27.8%
same,Activity,Mus musculus [29],23.2 g
same,inhibition,[30],27.1%
same,Vd,Rattus norvegicus [31],50.58 L/kg
same,Activity,Mus musculus [32],29.2 g
same,inhibition,[33],0%
same,inhibition,[34],0%
